The values below come from ChEMBL document CHEMBL1155773, “Effects of imipenem-cilastatin, ertapenem, piperacillin-tazobactam, and ceftriaxone treatments on persistence of intestinal colonization by extended-spectrum-beta-lactamase-producing Klebsiella pneumoniae strains in mice” (2007).

Values after ≈ are worked out from the molar mass of the structure shown. Active and inactive are the calls of the source. The rule behind the calls is not given here.

The subject of assay [1] is Klebsiella pneumoniae. Put plainly: Effect on extended-spectrum-beta-lactamase-producing Klebsiella pneumoniae P62 infected in sc dosed CF1 mouse with high-density bacterial colonization administered daily for 9 days assessed as promotion of persistent bacterial overgrowth by measuring stool bacterial count. It counts as functional, organism-based.
Assay [2] relates to Klebsiella pneumoniae. As to the kind of experiment: Effect on extended-spectrum-beta-lactamase-producing Klebsiella pneumoniae P10045 infected in sc dosed CF1 mouse with high-density bacterial colonization administered daily for 9 days assessed as promotion of persistent bacterial overgrowth by measuring stool bacterial count. It counts as functional, organism-based.
The subject of assay [3] is Klebsiella pneumoniae. As to the kind of experiment: Antibacterial activity against extended-spectrum-beta-lactamase-producing Klebsiella pneumoniae P10045 by broth dilution method. It counts as functional. Background: In broth dilution the organism is exposed to a series of concentrations in liquid medium.
For assay [4], the system named is Klebsiella pneumoniae. As to the kind of experiment: Antibacterial activity against extended-spectrum-beta-lactamase-producing Klebsiella pneumoniae isolate. It counts as functional.
The test system of assay [5] is Klebsiella pneumoniae. As to the kind of experiment: Antibacterial activity against extended-spectrum-beta-lactamase-producing Klebsiella pneumoniae P62 by broth dilution method. It counts as functional.
In assay [6] the test system is Klebsiella pneumoniae. Put plainly: Antibacterial activity against extended-spectrum-beta-lactamase-producing Klebsiella pneumoniae P62 infected in sc dosed CF1 mouse with high-density bacterial colonization administered daily for 9 days assessed as suppression of stool bacterial count. In kind it is functional, organism-based.
The test system of assay [7] is Klebsiella pneumoniae. As to the kind of experiment: Antibacterial activity against extended-spectrum-beta-lactamase-producing Klebsiella pneumoniae P10045 infected in sc dosed CF1 mouse with high-density bacterial colonization administered daily for 9 days assessed as suppression of stool bacterial count. In kind it is functional, organism-based.

Turning to `CO/N=C(\C(=O)N[C@@H]1C(=O)N2C(C(=O)O)=C(CSc3nc(=O)c(O)nn3C)CS[C@H]12)c1csc(N)n1` [CEFTRIAXONE], the result in the assay on Klebsiella pneumoniae [1] and with Klebsiella pneumoniae [2] was Active. In addition, the MIC with Klebsiella pneumoniae [3] worked out at 78 mg/L (≈ 141 µM); against Klebsiella pneumoniae [4] it was 4 mg/L (≈ 7.21 µM); in the assay on Klebsiella pneumoniae [5] it was 4 mg/L (≈ 7.21 µM).

Turning to `C[C@@H](O)[C@H]1C(=O)N2C(C(=O)O)=C(S[C@@H]3CN[C@H](C(=O)Nc4cccc(C(=O)O)c4)C3)[C@H](C)[C@H]12` [ERTAPENEM], the outcome with Klebsiella pneumoniae [6] and with Klebsiella pneumoniae [7] was Active. Also, the MIC is 0.25 mg/L (≈ 0.526 µM) in the assay with Klebsiella pneumoniae [3], less than 0.25 mg/L in the assay on Klebsiella pneumoniae [4] and less than 0.25 mg/L in the assay with Klebsiella pneumoniae [5].

Usually MIC stands for the lowest concentration that inhibits growth of the organism. A lower MIC goes with inhibition by little substance.
